We go through 32 molecules from ChEMBL document CHEMBL2010662, “Discovery of oxazole-based PDE4 inhibitors with picomolar potency” (Bioorg Med Chem Lett, 2012).

For series [1], the target named is 3',5'-cyclic-AMP phosphodiesterase 4B (Homo sapiens, UniProt Q07343). The series is described as follows: Inhibition of PDE4B.
The target in series [2] is Dual 3',5'-cyclic-AMP and -GMP phosphodiesterase 11A (Homo sapiens, UniProt Q9HCR9). Nature of the series: Inhibition of PDE11.
Series [3] can be described thus: Inhibition of PDE10.
The target in series [4] is 3',5'-cyclic-AMP phosphodiesterase 4D (Homo sapiens, UniProt Q08499). Nature of the series: Inhibition of PDE4D.
Sequence of 3',5'-cyclic-AMP phosphodiesterase 4D (Q08499 whole entry): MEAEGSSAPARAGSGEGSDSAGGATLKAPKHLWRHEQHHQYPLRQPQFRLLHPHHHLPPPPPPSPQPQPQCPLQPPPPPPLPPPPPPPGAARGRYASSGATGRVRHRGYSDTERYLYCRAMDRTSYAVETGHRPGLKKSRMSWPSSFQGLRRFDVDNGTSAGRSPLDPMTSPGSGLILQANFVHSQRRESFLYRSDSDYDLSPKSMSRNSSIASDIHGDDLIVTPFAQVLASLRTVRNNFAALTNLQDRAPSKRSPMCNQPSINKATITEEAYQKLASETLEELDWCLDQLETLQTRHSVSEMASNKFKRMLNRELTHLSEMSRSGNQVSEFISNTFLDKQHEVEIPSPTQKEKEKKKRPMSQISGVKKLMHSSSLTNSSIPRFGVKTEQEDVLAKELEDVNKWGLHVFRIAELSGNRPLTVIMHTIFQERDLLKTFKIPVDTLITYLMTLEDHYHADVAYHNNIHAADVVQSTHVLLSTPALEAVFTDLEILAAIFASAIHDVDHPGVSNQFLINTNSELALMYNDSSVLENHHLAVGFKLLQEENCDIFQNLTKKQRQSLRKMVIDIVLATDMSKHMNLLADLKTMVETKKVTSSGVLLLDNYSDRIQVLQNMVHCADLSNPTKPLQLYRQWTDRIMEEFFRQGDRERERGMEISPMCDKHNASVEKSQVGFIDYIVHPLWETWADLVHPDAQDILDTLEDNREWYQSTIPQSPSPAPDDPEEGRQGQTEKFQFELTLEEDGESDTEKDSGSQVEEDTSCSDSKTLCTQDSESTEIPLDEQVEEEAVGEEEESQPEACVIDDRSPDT
A short description of series [5]: Inhibition of PDE4-mediated TNF-alpha release by cell based assay.
A short description of series [6]: Cmax in rat at 10 mg/kg, po. Type of series: ADME, organism-based. Also noted: dose 10 mg/kg, route oral. To be noted: in vivo.
Series [7] is described as follows: Oral bioavailability in rat at 10 mg/kg. Type of series: ADME, organism-based. To be noted: in vivo.
A further series deals with Rattus norvegicus. Nature of the series: Antiinflammatory activity in po dosed rat assessed as inhibition of LPS-induced pulmonary inflammation. The series is classed as functional.
Another series addresses Cytochrome P450 2C19 (Homo sapiens, UniProt P33261). Nature of the series: Inhibition of CYP2C19. The series is classed as ADME.
The target in the next series is Cytochrome P450 3A4 (Homo sapiens, UniProt P08684). The series is described as follows: Inhibition of CYP3A4. Type of series: ADME.
Sequence of Cytochrome P450 3A4 (P08684 whole entry): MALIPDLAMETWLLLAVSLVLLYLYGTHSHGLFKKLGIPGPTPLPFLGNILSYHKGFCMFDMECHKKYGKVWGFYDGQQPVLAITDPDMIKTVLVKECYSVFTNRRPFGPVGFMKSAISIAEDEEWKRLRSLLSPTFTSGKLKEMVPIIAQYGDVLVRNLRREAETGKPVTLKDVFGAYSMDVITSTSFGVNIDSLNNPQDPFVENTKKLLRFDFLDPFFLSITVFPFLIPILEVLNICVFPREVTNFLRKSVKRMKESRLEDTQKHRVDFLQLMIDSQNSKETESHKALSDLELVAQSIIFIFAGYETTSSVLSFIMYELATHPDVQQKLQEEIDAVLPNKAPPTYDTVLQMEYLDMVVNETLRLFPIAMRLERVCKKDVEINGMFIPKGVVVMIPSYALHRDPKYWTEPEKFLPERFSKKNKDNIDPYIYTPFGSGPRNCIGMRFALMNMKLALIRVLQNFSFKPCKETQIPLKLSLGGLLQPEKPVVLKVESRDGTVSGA
The target of a further series is Cytochrome P450 2C9 (Homo sapiens, UniProt P11712). Nature of the series: Inhibition of CYP2C9. The series is classed as ADME.
Sequence of Cytochrome P450 2C9 (P11712 whole entry): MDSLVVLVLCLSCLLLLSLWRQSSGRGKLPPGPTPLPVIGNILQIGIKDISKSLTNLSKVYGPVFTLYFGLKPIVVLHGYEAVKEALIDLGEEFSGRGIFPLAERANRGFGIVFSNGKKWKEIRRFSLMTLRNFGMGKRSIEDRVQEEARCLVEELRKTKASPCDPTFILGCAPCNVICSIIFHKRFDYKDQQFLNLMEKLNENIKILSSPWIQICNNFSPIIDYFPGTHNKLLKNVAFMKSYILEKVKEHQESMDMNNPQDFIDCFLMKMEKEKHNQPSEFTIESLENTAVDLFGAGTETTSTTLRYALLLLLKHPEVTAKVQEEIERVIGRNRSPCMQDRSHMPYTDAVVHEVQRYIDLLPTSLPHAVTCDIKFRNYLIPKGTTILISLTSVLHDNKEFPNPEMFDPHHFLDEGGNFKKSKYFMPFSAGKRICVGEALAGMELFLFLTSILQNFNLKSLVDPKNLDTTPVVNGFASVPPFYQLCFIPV
The next series deals with Cytochrome P450 2D6 (Homo sapiens, UniProt P10635). The series is described as follows: Inhibition of CYP2D6. The series is classed as ADME.
Sequence of Cytochrome P450 2D6 (P10635 whole entry): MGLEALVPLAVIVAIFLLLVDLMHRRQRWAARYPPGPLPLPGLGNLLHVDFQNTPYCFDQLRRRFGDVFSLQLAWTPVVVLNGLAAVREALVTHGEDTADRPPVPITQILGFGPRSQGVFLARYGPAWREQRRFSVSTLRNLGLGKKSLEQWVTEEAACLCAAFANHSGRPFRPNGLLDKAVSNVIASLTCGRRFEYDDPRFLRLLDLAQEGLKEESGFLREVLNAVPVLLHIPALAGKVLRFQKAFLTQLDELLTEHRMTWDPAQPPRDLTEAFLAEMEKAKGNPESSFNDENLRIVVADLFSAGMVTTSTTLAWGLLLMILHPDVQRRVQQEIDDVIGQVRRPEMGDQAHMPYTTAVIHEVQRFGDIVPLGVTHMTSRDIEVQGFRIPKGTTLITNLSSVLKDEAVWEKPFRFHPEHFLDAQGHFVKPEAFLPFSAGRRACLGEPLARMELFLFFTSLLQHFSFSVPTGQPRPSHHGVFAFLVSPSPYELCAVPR

Usually IC50 stands for the concentration that gives 50% inhibition. A high value points to a need for much substance. As usually defined, the Cmax is the maximum level reached in the sampled fluid or tissue. One may read the bioavailability as dose-corrected exposure relative to a reference, in per cent. A low value points to little systemic uptake. What is called ED50 is the midpoint of the dose-response relation.

Molecules are shown by their SMILES. Some results are limits rather than exact numbers.

Sequence of 3',5'-cyclic-AMP phosphodiesterase 4B (Q07343 whole entry): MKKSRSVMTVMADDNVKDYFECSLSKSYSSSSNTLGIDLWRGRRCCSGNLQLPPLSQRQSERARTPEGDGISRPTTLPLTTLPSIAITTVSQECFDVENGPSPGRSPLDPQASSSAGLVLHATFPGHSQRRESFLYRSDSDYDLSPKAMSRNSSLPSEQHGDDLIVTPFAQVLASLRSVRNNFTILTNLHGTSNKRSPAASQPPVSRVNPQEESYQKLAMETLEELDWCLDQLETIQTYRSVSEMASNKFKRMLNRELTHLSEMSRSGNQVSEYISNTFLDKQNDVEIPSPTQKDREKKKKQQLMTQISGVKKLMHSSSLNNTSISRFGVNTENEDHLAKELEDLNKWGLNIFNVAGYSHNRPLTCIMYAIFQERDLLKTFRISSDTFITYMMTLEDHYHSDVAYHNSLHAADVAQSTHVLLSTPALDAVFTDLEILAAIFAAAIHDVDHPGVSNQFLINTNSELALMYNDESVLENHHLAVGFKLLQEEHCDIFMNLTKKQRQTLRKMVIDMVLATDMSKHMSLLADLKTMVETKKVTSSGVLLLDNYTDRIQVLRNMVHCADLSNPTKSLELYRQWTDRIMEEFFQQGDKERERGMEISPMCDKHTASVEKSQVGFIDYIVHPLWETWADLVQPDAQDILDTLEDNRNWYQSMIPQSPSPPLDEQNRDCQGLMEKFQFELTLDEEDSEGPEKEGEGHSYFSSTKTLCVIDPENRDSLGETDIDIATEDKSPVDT
Sequence of Dual 3',5'-cyclic-AMP and -GMP phosphodiesterase 11A (Q9HCR9 whole entry): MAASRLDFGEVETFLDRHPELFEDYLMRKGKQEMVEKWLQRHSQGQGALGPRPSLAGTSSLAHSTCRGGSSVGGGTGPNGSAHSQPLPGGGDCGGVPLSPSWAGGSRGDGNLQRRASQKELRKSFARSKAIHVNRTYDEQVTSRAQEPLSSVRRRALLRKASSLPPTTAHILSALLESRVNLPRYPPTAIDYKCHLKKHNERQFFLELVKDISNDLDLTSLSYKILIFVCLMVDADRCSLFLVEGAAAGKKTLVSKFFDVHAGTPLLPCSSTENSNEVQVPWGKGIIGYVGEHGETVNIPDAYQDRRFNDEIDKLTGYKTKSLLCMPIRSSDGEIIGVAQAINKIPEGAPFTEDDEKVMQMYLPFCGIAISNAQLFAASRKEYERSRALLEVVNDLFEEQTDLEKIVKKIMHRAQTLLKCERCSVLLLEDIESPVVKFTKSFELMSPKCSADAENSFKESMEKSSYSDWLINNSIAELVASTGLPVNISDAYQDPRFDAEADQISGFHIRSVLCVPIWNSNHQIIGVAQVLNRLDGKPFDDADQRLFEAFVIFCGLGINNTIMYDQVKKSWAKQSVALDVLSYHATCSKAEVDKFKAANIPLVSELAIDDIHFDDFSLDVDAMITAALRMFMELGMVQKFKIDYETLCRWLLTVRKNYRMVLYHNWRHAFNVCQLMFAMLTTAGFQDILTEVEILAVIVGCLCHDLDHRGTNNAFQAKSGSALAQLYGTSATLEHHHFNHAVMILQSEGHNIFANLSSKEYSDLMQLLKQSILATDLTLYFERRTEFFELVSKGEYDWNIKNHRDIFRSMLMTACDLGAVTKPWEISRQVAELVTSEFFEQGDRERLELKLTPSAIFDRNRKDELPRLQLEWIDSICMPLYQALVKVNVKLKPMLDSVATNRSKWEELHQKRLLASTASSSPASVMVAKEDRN
Sequence of Cytochrome P450 2C19 (P33261 whole entry): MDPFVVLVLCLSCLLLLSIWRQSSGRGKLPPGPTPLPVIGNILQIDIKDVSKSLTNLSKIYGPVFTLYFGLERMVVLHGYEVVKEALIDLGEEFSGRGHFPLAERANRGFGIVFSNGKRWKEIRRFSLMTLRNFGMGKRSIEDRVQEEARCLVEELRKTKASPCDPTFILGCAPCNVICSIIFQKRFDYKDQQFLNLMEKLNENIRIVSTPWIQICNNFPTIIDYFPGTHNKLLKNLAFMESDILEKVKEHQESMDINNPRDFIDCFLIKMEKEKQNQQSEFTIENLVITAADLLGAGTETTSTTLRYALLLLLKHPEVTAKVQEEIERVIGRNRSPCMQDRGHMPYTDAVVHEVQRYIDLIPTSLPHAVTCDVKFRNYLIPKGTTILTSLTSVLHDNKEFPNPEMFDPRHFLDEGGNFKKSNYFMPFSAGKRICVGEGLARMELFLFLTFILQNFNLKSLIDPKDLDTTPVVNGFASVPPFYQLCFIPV

`COc1ccc(-c2nc(C(=O)NCc3ccccc3)c(CN)o2)c2ccc(C(F)(F)F)nc12`: the half-inhibitory concentration (IC50) in series [1] stood at 3.7 nM; in [2] it was 4800 nM; in series [3] it was 1200 nM.
As to `COc1ccc(-c2nc(C(=O)NCc3ccc(F)cc3)c(CN)o2)c2ccc(C(F)(F)F)nc12`, the IC50 came to 4.1 nM in series [1], 2700 nM in series [2] and 1300 nM in series [3].
On to `COc1ccc(-c2nc(C(=O)NCc3ccc(Cl)cc3)c(CN)o2)c2ccc(C(F)(F)F)nc12`, for which the figures for the IC50 in series [1], in series [2] and in series [3] were 3.4 nM, 2700 nM and 2100 nM, respectively.
In series [1], `COc1ccc(-c2nc(C(=O)NCc3ccc(C#N)cc3)c(CN)o2)c2ccc(C(F)(F)F)nc12` showed an IC50 of 26 nM.
Regarding `COc1ccc(-c2nc(C(=O)NCc3ccc(S(C)(=O)=O)cc3)c(CN)o2)c2ccc(C(F)(F)F)nc12`, in [1], the half-maximal inhibitory concentration (IC50) is 37 nM.
For the molecule `COc1ccc(-c2nc(C(=O)NCc3cccc(F)c3)c(CN)o2)c2ccc(C(F)(F)F)nc12`, the figures for the IC50 in [1], in series [2] and in series [3] were 1.8 nM, 3900 nM and 810 nM, respectively.
As for `COc1ccc(-c2nc(C(=O)NCc3cccc(Cl)c3)c(CN)o2)c2ccc(C(F)(F)F)nc12`, the concentration for half-maximal inhibition (IC50) in [1] amounted to 1.5 nM; in series [2], 2100 nM; in series [3], 770 nM.
For `COc1ccc(-c2nc(C(=O)NCc3ccccc3F)c(CN)o2)c2ccc(C(F)(F)F)nc12` the same measures were 0.9 nM, 3600 nM and 500 nM.
Take `COc1ccc(-c2nc(C(=O)NCc3ccccc3Cl)c(CN)o2)c2ccc(C(F)(F)F)nc12`: the values for the IC50 in series [1], in series [2] and in series [3] were 1.2 nM, 2300 nM and 610 nM, respectively.
In the same order, the values of `COc1ccccc1CNC(=O)c1nc(-c2ccc(OC)c3nc(C(F)(F)F)ccc23)oc1CN` are 0.5 nM, 870 nM and 320 nM.
For `COc1ccc(-c2nc(C(=O)NCc3c(F)cccc3F)c(CN)o2)c2ccc(C(F)(F)F)nc12` the same measures were 0.46 nM, 2500 nM and 240 nM.
For the molecule `COc1ccc(-c2nc(C(=O)NCc3c(F)cccc3Cl)c(CN)o2)c2ccc(C(F)(F)F)nc12`, the results for the IC50 in series [1], in series [2] and in [3] were 0.1 nM, 1300 nM and 410 nM, respectively.
With `COc1ccc(-c2nc(C(=O)NCc3ccc(F)cc3F)c(CN)o2)c2ccc(C(F)(F)F)nc12`, the half-maximal inhibitory concentration (IC50) in series [1] was found to be 0.6 nM; in series [2] it was 2200 nM; in [4], 0.7 nM; in [3], 1000 nM.
Take `COc1ccc(-c2nc(C(=O)NCc3ccc(Cl)cc3F)c(CN)o2)c2ccc(C(F)(F)F)nc12`: the IC50 in series [1] stood at 2.7 nM; in [2], 2700 nM; in [3], 2200 nM.
Regarding `COc1ccc(-c2nc(C(=O)NCc3ccc(Cl)cc3Cl)c(CN)o2)c2ccc(C(F)(F)F)nc12`, the concentration for half-maximal inhibition (IC50) in [1] turned out to be 4.3 nM; in series [2], 1100 nM; in series [3] it was 1300 nM.
In the same order, the values of `COc1ccc(-c2nc(C(=O)NCc3ccc(F)c(F)c3)c(CN)o2)c2ccc(C(F)(F)F)nc12` are 2.6 nM, 2200 nM and 1300 nM.
Turning to `COc1ccc(-c2nc(C(=O)NCc3ccc(Cl)cc3)c([C@H](C)N)o2)c2ccc(C(F)(F)F)nc12`, the IC50 worked out at 0.35 nM in [1], 1100 nM in series [2] and 650 nM in [3].
For `COc1ccc(-c2nc(C(=O)NCc3cccc(F)c3)c([C@H](C)N)o2)c2ccc(C(F)(F)F)nc12` the same measures were 0.3 nM, 1400 nM and 160 nM.
As for `COc1ccc(-c2nc(C(=O)NCc3ccccc3F)c([C@H](C)N)o2)c2ccc(C(F)(F)F)nc12`, the half-inhibitory concentration (IC50) in series [1] was 0.3 nM; in [2], 1100 nM; in series [3], 80 nM.
`COc1ccc(-c2nc(C(=O)NCc3c(F)cccc3F)c([C@H](C)N)o2)c2ccc(C(F)(F)F)nc12`: the values for the concentration for half-maximal inhibition (IC50) in [1], in series [2] and in [3] were 0.05 nM, 1400 nM and 125 nM, respectively.
For `COc1ccc(-c2nc(C(=O)NCc3c(F)cccc3Cl)c([C@H](C)N)o2)c2ccc(C(F)(F)F)nc12` the same measures were 0.03 nM, 1600 nM and 120 nM.
Turning to `COc1ccc(-c2nc(C(=O)NCc3ccc(F)cc3F)c([C@H](C)N)o2)c2ccc(C(F)(F)F)nc12`, the IC50 in [1] is 0.06 nM; in series [2] it was 2300 nM; in series [5] it was 0.6 nM; at Cytochrome P450 2C19 it was more than 8000 nM; on Cytochrome P450 3A4, more than 8000 nM; against Cytochrome P450 2C9, more than 8000 nM. Besides, the figures for the half-inhibitory concentration (IC50) (on Cytochrome P450 2D6; in [3]) were more than 8000 nM and 950 nM, respectively. Also, the concentration in series [6] peaked (Cmax) at 960 nM. Moreover, the bioavailability in series [7] worked out at 24%. For the same molecule, the ED50 with Rattus norvegicus turned out to be 0.1 mg/kg.
As to `COc1ccc(-c2nc(C(=O)NCc3ccc(Cl)cc3F)c([C@H](C)N)o2)c2ccc(C(F)(F)F)nc12`, the IC50 in [1] turned out to be 0.7 nM; in series [2], 1100 nM; in series [3], 700 nM.
For `COc1ccc(-c2nc(C(=O)NCc3ccc(Cl)cc3Cl)c([C@H](C)N)o2)c2ccc(C(F)(F)F)nc12` the same measures were 0.7 nM, 1800 nM and 1700 nM.
For `COc1ccc(-c2nc(C(=O)NCc3ccc(F)c(F)c3)c([C@H](C)N)o2)c2ccc(C(F)(F)F)nc12`, the IC50 in [1] came out at 0.6 nM; in [2] it was 2000 nM; in [3] it was 1400 nM.
For `COc1ccc(-c2nc(C(=O)NCc3c(F)cc(F)cc3F)c([C@H](C)N)o2)c2ccc(C(F)(F)F)nc12` the same measures were 0.04 nM, 3400 nM and 500 nM.
In [1], `CC[C@H](N)c1oc(-c2ccc(OC)c3nc(C(F)(F)F)ccc23)nc1C(=O)NCc1ccc(Cl)cc1` showed a half-inhibitory concentration (IC50) of 0.81 nM.
As to `COc1ccc(-c2nc(C(=O)NCc3ccc(Cl)cc3)c([C@@H](N)CO)o2)c2ccc(C(F)(F)F)nc12`, the IC50 in series [1] was 12.7 nM.
Regarding `COc1ccc(-c2nc(C(=O)NCc3ccc(F)cc3F)c([C@@H](N)C(C)C)o2)c2ccc(C(F)(F)F)nc12`, in series [1], the half-inhibitory concentration (IC50) is 0.36 nM.
Molecule `COc1ccc(-c2nc(C(=O)N[C@H](CO)c3ccccc3)c(CN)o2)c2ccc(C(F)(F)F)nc12` registered an IC50 in series [1] of 1.6 nM.
The same measure, in the same setting: the same measure for `COc1ccc(-c2nc(C(=O)N[C@H](CO)c3ccccc3)c([C@H](C)N)o2)c2ccc(C(F)(F)F)nc12`: 0.11 nM; for `COc1ccc(-c2nc(C(=O)N[C@H](CO)c3ccccc3)c([C@@H](C)N)o2)c2ccc(C(F)(F)F)nc12`: 8.4 nM.
